Measured values from patent publication US20190314436A1, “PHARMACEUTICAL COMPOSITION FOR PREVENTION OR TREATMENT OF LIVER CANCER AND HEALTH FUNCTIONAL FOOD” (KOREA BIO MEDICAL SCIENCE INSTITUTE CO., LTD, priority 2016, published 2019).

Columns and labels:
Huh7 cells = test: MTT assay, liver cancer growth inhibition / cell death; assay type: cell-based; settings: 48 hours
Experimental: Hepatoma cell proliferation inhibitory efficacies of the Ulmi cortex extract (WSY-0), Nardostachys jatamansi extract (WSY-1), Lophatheri Herba extract (WSY-3) and Torilis japonica extract (WSY-37) in target cells or mice treated with the same were validated by MTT assay and effective concentrations thereof were determined.
In vitro liver cancer growth inhibitory abilities of four (4) natural products (WSY-0, WSY-1, WSY-3, and WSY-37) were verified by the MTT assay.
With respect to the 4 types of natural products, total 8 types of extracts were prepared through hydrothermal extraction and ethanol extraction, respectively. These extracts were identified to have in vitro liver cancer growth inhibitory ability in 5 types of liver cancer cell lines (Huh7, HepG2, Hep3B, PLC/PRF5, and SK-hep1).
Further, in treatment using each of three ethanol extracts in an amount of 200 μg/mL except WSY-37, the cell growth inhibitory ability was identified in 4 types of liver cancer cell lines except Hep G2 cells.
When treating Huh7 cells with sorafenib for 48 hours, it was identified that about 60% cell death was induced with 2 μM of sorafenib and about 80% cell death was induced with 4 μM of sorefenib, respectively (see FIG. 1).

HCCLM3 cells = test: Cell death in hyper-metastatic HCC cell line; assay type: cell-based; settings: HCCLM3, 16 μM, 48 hours
Excerpt: By treatment of HCCLM3 cells using WSY-1 or WSY-3 extract in ethanol to identify cell death effects, in vitro anti-cancer effects of the natural extracts on cell lines having different sorafenib sensitivities were investigated.

[1] = system: HCCLM3 hepatocellular carcinoma; test: Orthotopic HCC model, HCCLM3 via liver portal vein; assay type: in vivo, Balb/c nu/nu mouse; settings: 30 mpk oral daily, 8 weeks
Excerpt: Establishment of Hepatocellular Carcinoma (HCC) in Small Animal Models
In order to induce HCC in a small animal model, a method of injecting chemicals such as DEN or a method of directly injecting HCC cells into the model is used. Although DEN treatment is convenient in view of experiment, this process entails a disadvantage in that a long period of time (about 50 weeks) is required for generation of tumors (‘tumorigenesis’). Therefore, in order to efficiently verify in vivo anticancer effects of natural extracts for a short period of time, an orthotopic implantation model of directly injecting HCC cells into the liver of a mouse was implemented.
The orthotopic implantation model is a method of inducing formation of cancer in liver tissues by directly injecting HCC cell lines such as Huh7 or HCCLM3 into hepatic portal vein or mesenchyma (liver lobe) of the mouse, and takes about 8 weeks to form tumors, which is considerably shorter than DEN, thus being properly used.
Efficacies of the Ulmi cortex extract (WSY-0), Nardostachys jatamansi extract (WSY-1), Lophatheri Herba extract (WSY-3) or Torilis Japonica extract (WSY-37) on HCC formation and suppression thereof have been validated through liver gross, H & E staining and serum analysis. […]

[2] = system: Hepa1-6 hepatocellular carcinoma; test: Orthotopic HCC model, Hepa1-6 via liver portal vein; assay type: in vivo, C57/BL6 mouse; settings: WSY-1 100 mpk, sorafenib 30 mpk, oral daily
Experimental: In the present study, based on results of the primary in vivo efficacy validation experiment and preliminary experiment, the following experiment conditions were set up and the secondary validation experiment was implemented.
Administered cell/administration route: 5×10^5 Hepa1-6-GFP cells/liver portal vein
Dose/administration route/dosing frequency: WSY-1 100 mpk, sorafenib 30 mpk/oral administration/daily
5×10^5 Hepa1-6GFP cells were administered to the liver portal vein of each 6-week-old C57/BL6 mouse. 3 days later, the mice were randomly grouped, followed by administration of WSY-1 and sorafenib for 3 weeks.
During 3 weeks administration period, death (mortality) due to tumorigenesis was induced in the following experimental groups. After termination of the administration, survived mice were sacrificed and analyzed for anti-cancer effects.

liver cancer = settings: cited from earlier work

CNC(=O)c1cc(Oc2ccc(NC(=O)Nc3ccc(Cl)c(C(F)(F)F)c3)cc2)ccn1 [sorafenib]
cell death (Huh7 cells; Huh7, 2 μM): about 60% | cell death (Huh7 cells; Huh7, 4 μM): about 80% | apoptotic effects (HCCLM3 cells): ≤ 50% | liver weight/body weight vs mice with HCCLM3 only [1]: decreased | death (mortality) due to tumorigenesis ([2]; 3 weeks administration): 4 out of 13 | liver weight/body weight vs mice injected with Hepa1-6 cells only ([2]; 3 weeks): significantly decreased | patients with partial response (liver cancer; 137 patients, Phase 2 clinical trials): ≤ 5% | extension of life compared to placebo dose group (liver cancer; orally administered): ~3 months
